{"source": "ChEMBL document CHEMBL1201862", "about": "“PubChem BioAssay data set” (2004)", "key": {"[1]": {"target": "26S proteasome non-ATPase regulatory subunit 14 (Homo sapiens, UniProt O00487)", "sequence (O00487 whole entry)": "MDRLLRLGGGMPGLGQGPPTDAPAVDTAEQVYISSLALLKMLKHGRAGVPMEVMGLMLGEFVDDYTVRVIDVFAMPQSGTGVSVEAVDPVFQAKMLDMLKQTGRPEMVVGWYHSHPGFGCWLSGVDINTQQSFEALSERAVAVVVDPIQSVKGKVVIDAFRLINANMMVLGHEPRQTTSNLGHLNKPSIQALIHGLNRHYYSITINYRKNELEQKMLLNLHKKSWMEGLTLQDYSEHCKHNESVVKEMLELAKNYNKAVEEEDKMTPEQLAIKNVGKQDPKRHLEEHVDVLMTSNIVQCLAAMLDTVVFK", "experiment": "inhibition of proteasome subunit RPN11 – biochemical, fluorescence polarization, uHTS hits, confirmation (AID 602368)", "type": "functional"}, "Prothrombin": {"target": "Prothrombin (Bos taurus, UniProt P00735)", "experiment": "thrombin inhibition, dose response, biochemical, fluorescence polarization, uHTS hits (AID 602369)", "type": "functional"}, "[2]": {"target": "72 kDa type IV collagenase (Homo sapiens, UniProt P08253)", "sequence (P08253 whole entry)": "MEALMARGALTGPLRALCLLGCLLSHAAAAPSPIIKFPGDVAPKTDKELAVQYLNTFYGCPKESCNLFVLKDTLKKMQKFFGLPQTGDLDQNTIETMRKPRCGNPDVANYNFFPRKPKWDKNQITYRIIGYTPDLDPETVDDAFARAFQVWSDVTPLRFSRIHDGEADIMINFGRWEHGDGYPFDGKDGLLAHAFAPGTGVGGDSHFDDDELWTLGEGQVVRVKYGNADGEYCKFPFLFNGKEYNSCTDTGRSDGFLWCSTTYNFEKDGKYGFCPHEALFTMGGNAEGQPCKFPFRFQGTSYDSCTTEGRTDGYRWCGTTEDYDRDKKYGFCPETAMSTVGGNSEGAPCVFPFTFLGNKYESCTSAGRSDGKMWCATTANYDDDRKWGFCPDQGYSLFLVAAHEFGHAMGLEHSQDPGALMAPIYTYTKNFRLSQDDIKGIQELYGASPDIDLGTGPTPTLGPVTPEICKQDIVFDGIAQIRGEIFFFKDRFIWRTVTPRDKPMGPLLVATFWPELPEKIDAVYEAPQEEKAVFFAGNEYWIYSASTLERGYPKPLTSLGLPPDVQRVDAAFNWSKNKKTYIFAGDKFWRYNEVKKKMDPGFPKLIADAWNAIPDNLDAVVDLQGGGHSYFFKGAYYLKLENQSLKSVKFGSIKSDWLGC", "experiment": "Dose Response validation of uHTS RPN11 inhibitor hits using a MMP-2 Fluorescence assay.", "type": "functional"}, "Large T antigen": {"target": "Large T antigen (Simian virus 40, UniProt P03070)", "sequence (P03070 whole entry)": "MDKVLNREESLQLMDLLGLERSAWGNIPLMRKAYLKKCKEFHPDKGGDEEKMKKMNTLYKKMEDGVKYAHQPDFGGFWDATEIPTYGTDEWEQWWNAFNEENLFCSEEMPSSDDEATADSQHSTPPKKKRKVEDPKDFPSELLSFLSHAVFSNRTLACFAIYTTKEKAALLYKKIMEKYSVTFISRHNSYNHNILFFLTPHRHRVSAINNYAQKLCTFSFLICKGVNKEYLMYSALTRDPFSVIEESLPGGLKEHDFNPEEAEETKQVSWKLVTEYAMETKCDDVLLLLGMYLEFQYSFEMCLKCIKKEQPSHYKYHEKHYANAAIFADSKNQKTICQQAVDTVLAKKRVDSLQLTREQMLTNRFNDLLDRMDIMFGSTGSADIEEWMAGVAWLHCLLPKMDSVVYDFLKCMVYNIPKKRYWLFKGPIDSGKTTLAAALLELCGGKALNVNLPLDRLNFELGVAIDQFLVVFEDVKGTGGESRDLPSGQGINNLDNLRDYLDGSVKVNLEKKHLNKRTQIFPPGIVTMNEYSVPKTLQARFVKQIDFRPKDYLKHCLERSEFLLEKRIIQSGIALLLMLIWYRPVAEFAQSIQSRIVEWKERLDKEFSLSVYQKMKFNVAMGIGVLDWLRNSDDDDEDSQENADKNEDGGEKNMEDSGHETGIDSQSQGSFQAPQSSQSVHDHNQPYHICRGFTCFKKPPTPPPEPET", "type": "functional, Betapolyomavirus macacae"}, "[3]": {"target": "Induced myeloid leukemia cell differentiation protein Mcl-1 (Homo sapiens, UniProt Q07820)", "sequence (Q07820 whole entry)": "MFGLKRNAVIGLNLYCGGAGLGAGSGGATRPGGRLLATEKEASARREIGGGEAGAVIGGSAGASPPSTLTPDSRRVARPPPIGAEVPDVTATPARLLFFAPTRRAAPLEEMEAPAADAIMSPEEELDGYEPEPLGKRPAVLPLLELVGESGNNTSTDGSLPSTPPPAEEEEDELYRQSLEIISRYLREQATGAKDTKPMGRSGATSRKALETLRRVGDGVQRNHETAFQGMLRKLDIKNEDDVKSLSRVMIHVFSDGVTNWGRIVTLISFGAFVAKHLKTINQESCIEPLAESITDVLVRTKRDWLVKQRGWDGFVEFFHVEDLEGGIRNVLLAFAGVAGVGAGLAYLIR", "type": "functional"}, "Leucine aminopeptidase": {"target": "T1, Leucine aminopeptidase (Plasmodium falciparum 3D7, UniProt Q8IL11)", "T1 sequence (Q8IL11 whole entry)": "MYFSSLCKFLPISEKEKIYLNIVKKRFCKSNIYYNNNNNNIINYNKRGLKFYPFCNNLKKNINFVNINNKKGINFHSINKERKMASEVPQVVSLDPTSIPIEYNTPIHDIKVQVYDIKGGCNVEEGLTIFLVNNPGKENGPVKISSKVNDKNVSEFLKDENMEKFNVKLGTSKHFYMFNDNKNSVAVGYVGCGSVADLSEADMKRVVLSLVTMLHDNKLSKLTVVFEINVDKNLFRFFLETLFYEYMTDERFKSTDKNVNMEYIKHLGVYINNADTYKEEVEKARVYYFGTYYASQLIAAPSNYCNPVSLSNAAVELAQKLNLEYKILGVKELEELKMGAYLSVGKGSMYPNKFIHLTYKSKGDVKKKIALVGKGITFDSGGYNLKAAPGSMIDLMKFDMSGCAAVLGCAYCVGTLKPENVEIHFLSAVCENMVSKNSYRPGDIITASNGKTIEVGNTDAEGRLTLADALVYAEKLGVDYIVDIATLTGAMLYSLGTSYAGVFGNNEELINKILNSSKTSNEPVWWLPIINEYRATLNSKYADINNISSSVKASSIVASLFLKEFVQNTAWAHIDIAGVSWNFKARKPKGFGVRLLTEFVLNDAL", "experiment": "P. falciparum M17LAP inhibitors, primary screen, biochemical, fluorogenic H-Leu-NHMec substrate, 1536-well (AID 1619)", "type": "functional"}, "Beta-galactosidase": {"target": "Beta-galactosidase (Escherichia coli, UniProt Q8VNN2)", "sequence (Q8VNN2 whole entry)": "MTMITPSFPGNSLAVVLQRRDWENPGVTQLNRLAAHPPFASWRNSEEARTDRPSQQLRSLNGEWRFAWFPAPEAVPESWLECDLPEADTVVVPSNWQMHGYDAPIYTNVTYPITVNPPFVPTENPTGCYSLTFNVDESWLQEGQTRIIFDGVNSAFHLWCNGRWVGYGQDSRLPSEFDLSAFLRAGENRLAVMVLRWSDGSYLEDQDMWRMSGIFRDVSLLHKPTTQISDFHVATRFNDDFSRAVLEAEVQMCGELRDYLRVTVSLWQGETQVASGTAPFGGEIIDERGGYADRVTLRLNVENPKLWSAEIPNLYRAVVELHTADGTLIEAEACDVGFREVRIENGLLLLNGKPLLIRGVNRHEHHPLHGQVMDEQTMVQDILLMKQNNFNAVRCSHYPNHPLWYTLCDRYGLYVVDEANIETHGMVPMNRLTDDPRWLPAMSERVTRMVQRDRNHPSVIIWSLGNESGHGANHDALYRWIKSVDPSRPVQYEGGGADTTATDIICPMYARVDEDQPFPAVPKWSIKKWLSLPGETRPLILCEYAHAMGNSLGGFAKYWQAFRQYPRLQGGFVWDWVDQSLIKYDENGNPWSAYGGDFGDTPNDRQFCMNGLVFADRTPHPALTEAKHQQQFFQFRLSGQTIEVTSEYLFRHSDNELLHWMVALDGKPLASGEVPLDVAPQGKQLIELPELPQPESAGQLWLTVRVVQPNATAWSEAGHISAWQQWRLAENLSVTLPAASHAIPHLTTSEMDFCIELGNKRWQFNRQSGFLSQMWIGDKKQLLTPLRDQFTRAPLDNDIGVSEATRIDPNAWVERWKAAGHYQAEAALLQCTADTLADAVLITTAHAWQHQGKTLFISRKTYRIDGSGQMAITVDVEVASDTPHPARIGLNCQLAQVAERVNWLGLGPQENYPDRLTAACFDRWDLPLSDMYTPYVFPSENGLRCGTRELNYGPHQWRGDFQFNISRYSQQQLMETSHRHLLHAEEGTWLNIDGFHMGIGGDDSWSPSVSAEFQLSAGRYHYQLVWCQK", "experiment": "Dose response counterscreen for EBI2 assay utilizing the enzyme, b-galactosidase.", "type": "functional"}, "Paired box protein Pax-8": {"target": "Paired box protein Pax-8 (Homo sapiens, UniProt Q06710)", "sequence (Q06710 whole entry)": "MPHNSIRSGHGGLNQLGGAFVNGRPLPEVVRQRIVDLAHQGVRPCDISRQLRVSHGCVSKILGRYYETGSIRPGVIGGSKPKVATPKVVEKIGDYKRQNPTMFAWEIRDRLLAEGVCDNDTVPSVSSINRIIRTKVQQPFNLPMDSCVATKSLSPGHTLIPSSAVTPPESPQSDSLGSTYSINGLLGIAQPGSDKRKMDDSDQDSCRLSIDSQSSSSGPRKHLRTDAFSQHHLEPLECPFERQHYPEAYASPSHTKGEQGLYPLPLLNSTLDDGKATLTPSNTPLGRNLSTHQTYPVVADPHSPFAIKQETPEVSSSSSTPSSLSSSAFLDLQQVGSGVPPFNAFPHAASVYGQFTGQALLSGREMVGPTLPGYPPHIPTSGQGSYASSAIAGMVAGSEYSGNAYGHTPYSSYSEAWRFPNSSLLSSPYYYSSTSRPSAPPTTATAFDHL", "experiment": "inhibitors of PAX8-driven TPO luciferase reporter, dose response, RMG-I cells, cherry-pick (AID 687027);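 further: luciferase reporter driven by Pax8 target thyroperoxidase promoter measured by SteadyGlo luminescence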", "type": "functional, cell-based"}, "[4]": {"experiment": "inhibitors of HIV Env-driven cell fusion, dose response, cherry-pick (AID 652057)", "type": "functional, cell-based"}, "[5]": {"experiment": "ZM109 Env clade C HIV-1 fusion inhibitors, dose response, HeLa effector, CEM target cells, luciferase, cherry-pick (AID 652058)", "type": "functional, cell-based"}, "[6]": {"experiment": "inhibitors of clade B AD8 Env fusion, dose response, cell-based, cherry-pick (AID 652062);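 further: potency is for inhibitors of fusion seen as a drop in luminescence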", "type": "functional"}, "[7]": {"target": "T2, High affinity choline transporter 1 (Homo sapiens, UniProt Q9GZV3)", "T2 sequence (Q9GZV3 whole entry)": "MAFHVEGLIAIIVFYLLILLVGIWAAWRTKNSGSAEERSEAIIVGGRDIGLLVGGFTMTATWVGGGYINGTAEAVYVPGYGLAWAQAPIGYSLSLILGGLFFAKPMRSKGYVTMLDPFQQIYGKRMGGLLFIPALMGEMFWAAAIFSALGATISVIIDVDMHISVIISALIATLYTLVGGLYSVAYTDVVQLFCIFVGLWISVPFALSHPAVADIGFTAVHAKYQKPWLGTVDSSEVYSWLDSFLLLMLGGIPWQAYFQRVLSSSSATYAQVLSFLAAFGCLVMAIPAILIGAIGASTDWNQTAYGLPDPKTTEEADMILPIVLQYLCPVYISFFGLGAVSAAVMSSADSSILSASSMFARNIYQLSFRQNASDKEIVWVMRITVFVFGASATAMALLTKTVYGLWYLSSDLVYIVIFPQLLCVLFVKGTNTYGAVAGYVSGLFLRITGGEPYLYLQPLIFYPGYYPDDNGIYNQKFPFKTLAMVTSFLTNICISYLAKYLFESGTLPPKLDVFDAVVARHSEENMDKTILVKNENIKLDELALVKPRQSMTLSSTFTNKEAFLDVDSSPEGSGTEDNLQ", "experiment": "CHT inhibitors, dose response, cell-based, 5-point CRC, membrane potential dye (AID 504840)", "type": "functional"}, "[8]": {"target": "T3, Small ubiquitin-related modifier 1 (Homo sapiens, UniProt P63165)", "T3 sequence (P63165 whole entry)": "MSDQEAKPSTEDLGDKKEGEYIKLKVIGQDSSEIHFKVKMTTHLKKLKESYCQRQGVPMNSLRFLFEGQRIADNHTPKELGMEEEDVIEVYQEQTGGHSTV", "experiment": "inhibitors of SUMO1 partner interactions, dose response, biochemical, FRET (AID 624383)", "type": "functional", "settings": "read-out: IC50_Mean"}, "[9]": {"target": "T3, Small ubiquitin-related modifier 1", "experiment": "inhibitors of SUMO1 peptide binding, dose response, biochemical, fluorescence polarization, uHTS hits (AID 624382)", "type": "functional", "settings": "read-out: IC50_Mean"}, "[10]": {"target": "T4, Polyadenylate-binding protein 1 (Homo sapiens, UniProt P11940)", "T4 sequence (P11940 whole entry)": "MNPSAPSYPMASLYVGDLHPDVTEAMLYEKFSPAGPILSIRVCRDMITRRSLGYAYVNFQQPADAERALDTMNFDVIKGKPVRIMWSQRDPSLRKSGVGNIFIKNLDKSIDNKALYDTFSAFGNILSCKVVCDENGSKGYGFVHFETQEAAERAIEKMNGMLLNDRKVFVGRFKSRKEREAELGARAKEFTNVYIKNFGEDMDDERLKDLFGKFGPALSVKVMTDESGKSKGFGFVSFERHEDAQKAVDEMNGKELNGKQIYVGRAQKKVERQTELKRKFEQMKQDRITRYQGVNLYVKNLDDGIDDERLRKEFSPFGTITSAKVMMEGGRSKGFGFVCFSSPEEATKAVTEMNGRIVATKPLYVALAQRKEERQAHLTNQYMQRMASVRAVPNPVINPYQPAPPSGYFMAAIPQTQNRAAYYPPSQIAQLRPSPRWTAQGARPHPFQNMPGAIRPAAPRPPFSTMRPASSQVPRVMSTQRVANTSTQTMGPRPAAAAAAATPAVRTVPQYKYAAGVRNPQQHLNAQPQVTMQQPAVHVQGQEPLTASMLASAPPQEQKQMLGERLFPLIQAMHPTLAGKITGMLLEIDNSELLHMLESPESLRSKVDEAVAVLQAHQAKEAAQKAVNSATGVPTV", "experiment": "PABP1 MLLE–PAM2 interaction inhibitors, dose response, miRNA deadenylation inhibitor project, biochemical, fluorescence polarization, Cy5-PAM2 peptide, secondary (AID 602260)", "type": "functional", "settings": "read-out: IC50_Mean"}, "[11]": {"target": "T4, Polyadenylate-binding protein 1", "experiment": "PABP1 MLLE–PAM2 binding inhibitor potency, dose response, biochemical, fluorescence polarization, FITC-PAM2 peptide (AID 602259)", "type": "functional", "settings": "read-out: IC50_Mean"}}, "note": "Calls of active or inactive are those of the source.", "data": [{"smiles": "NC(=O)CC(NC(=O)c1ccc(Br)cc1)c1ccc(NC2CCCCCC2)c([N+](=O)[O-])c1", "note": "(configuration not stated)", "values": [{"measurement": "IC50", "setting": "[1]", "value": "31.6 µM (active)"}, {"measurement": "IC50", "setting": "Prothrombin", "value": "88.5 µM (active)"}, {"measurement": "IC50", "setting": "[2]", "value": "> 100 µM (inactive)"}]}, {"smiles": "COc1ccc(/C=C2/C(=O)NC(=S)N(C3CC3)C2=O)cc1CN1C(=O)c2ccccc2C1=O", "values": [{"measurement": "IC50", "setting": "Large T antigen", "value": "48.5 µM (active)"}, {"measurement": "IC50", "setting": "[3]", "value": "5.54 µM (active)"}]}, {"smiles": "O=c1[nH][nH]c(=O)c2cc(N3CCCC3)ccc12", "values": [{"measurement": "IC50", "setting": "Leucine aminopeptidase", "value": "70.7 µM (active)"}]}, {"smiles": "N#C/C(=C\\c1ccccc1)C(=O)Nc1cc(S(=O)(=O)N2CCOCC2)ccc1N1CCCC1", "values": [{"measurement": "IC50", "setting": "Beta-galactosidase", "value": "> 80 µM (inactive)"}]}, {"smiles": "CCOC(=O)/C=C/C(=O)Nc1cc(S(=O)(=O)Nc2ccc(OC)cc2)ccc1N1CCOCC1", "values": [{"measurement": "IC50", "setting": "Beta-galactosidase", "value": "> 80 µM (inactive)"}, {"measurement": "AC50", "setting": "Paired box protein Pax-8", "value": "5.42 µM (active)"}]}, {"smiles": "C[C@@H]1CN([C@@H](C)CO)S(=O)(=O)c2ccc(C3=CCCCC3)cc2O[C@@H]1CN(C)S(=O)(=O)c1ccc(F)cc1", "values": [{"measurement": "AC50", "setting": "[4]", "value": "3.34 µM (active)"}, {"measurement": "AC50", "setting": "[5]", "value": "1.35 µM (active)"}, {"measurement": "AC50", "setting": "[6]", "value": "3.53 µM (active)"}]}, {"smiles": "COc1ccc(C=C2SC(=S)N(CCCC(=O)Nc3ccc(C(=O)O)c(O)c3)C2=O)cc1OC", "values": [{"measurement": "IC50", "setting": "[1]", "value": "26.2 µM (active)"}, {"measurement": "IC50", "setting": "Prothrombin", "value": "35.3 µM (active)"}, {"measurement": "IC50", "setting": "[2]", "value": "> 100 µM (inactive)"}]}, {"smiles": "CCSc1nnc(NC(=O)C2CC=CCC2C(=O)O)s1", "note": "(configuration not stated)", "values": [{"measurement": "IC50", "setting": "Leucine aminopeptidase", "value": "19.9 µM (active)"}]}, {"smiles": "C=CCN(CC=C)S(=O)(=O)c1ccc2nc(NC(=O)C(C)C)sc2c1", "values": [{"measurement": "IC50", "setting": "[7]", "value": "13.8 µM (active)"}]}, {"smiles": "O=c1c(-c2c(O)cc(O)c3c(=O)cc(-c4ccc(O)cc4)oc23)c(-c2ccc(O)cc2)oc2cc(O)cc(O)c12", "values": [{"measurement": "IC50", "setting": "[8]", "value": "9.2 µM (active)"}, {"measurement": "IC50", "setting": "[9]", "value": "> 66.6 µM (inactive)"}, {"measurement": "IC50", "setting": "[3]", "value": "2.73 µM (not active)"}]}, {"smiles": "Cc1cc(C)c(NC(=O)CCCCCNC2CCCCC2)c(C)c1", "values": [{"measurement": "IC50", "setting": "[7]", "value": "12.6 µM (active)"}]}, {"smiles": "NC(=O)c1ccc2c(=O)n3c(-c4cc(Cl)c(N)c(Cl)c4)csc3nc2c1", "values": [{"measurement": "IC50", "setting": "[8]", "value": "13.4 µM (active)"}, {"measurement": "IC50", "setting": "[9]", "value": "> 66.6 µM (inactive)"}]}, {"smiles": "COc1ccc(NC(=O)CSc2nc(O)c(Cc3ccccc3)c(=O)[nH]2)cc1", "values": [{"measurement": "IC50", "setting": "Leucine aminopeptidase", "value": "10.2 µM (active)"}, {"measurement": "IC50", "setting": "[10]", "value": "> 66 µM (inactive)"}, {"measurement": "IC50", "setting": "[11]", "value": "> 66 µM (inactive)"}]}, {"smiles": "CC1CCCC(C)N1CCCNC(=O)CN1C(=O)c2cccnc2Oc2ccc(Cl)cc21", "note": "(configuration not stated)", "values": [{"measurement": "IC50", "setting": "[7]", "value": "13.8 µM (active)"}]}]}
